We go through eight molecules from ChEMBL document CHEMBL4007389, “Discovery and evaluation of inhibitors to the immunosuppressive enzyme indoleamine 2,3-dioxygenase 1 (IDO1): Probing the active site-inhibitor interactions” (Eur J Med Chem, 2017).

Each structure is given as a SMILES string. Bounds are passed on as bounds.

For series [1], the species on record is Homo sapiens. Kind of series: Selectivity ratio of IC50 for recombinant human IDO1 S167A mutant expressed in Escherichia coli SG13009(pREP4) to IC50 for recombinant human IDO1 expressed in bacterial expression system.
For series [2], the target named is T1, Indoleamine 2,3-dioxygenase 1 (Homo sapiens, UniProt P14902). Briefly: Inhibition of recombinant human IDO1 expressed in bacterial expression system using L-Tryptophan as substrate after 25 mins in absence of GSH and presence of tween20 by fluorescence assay.
Target sequence in this assay (P14902 whole entry): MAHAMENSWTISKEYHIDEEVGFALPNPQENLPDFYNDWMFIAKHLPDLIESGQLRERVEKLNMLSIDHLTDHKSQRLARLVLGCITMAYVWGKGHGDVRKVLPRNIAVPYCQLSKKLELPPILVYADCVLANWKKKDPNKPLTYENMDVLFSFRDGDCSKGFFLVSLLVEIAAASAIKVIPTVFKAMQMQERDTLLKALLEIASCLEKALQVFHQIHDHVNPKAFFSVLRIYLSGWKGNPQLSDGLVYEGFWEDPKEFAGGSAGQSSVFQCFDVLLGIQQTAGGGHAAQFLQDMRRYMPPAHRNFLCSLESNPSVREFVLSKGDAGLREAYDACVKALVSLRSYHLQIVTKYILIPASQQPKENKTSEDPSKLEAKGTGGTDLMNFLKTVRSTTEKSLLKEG
The target of series [3] is Indoleamine 2,3-dioxygenase 1 (Homo sapiens, UniProt P14902, S167A).
Indoleamine 2,3-dioxygenase 1 (Homo sapiens, UniProt P14902, S167A), sequence (P14902 whole entry S167A): as the sequence (P14902 whole entry) above, with S167A counted along it
Series [4] addresses T1, Indoleamine 2,3-dioxygenase 1. Briefly: Inhibition of full length recombinant human His-tagged IDO1 expressed in mouse LLTC cells using L-tryptophan as substrate after 24 hrs. The series is classed as cell-based.
Target sequence in this assay (P14902 whole entry): as the sequence (P14902 whole entry) above
Series [5] shares this target. Kind of series: Inhibition of recombinant human IDO1 expressed in bacterial expression system using L-Tryptophan as substrate after 25 mins in absence of GSH and tween20 by fluorescence assay.
Target sequence in this assay (P14902 whole entry): as above
Series [6] has the same target. Conditions: 50 uM.
Target sequence in this assay (P14902 whole entry, looked up): as the sequence (P14902 whole entry) above
A short description of series [7]: Cytotoxicity against mouse LLTC cells assessed as reduction in cell viability after 24 hrs by MTT assay. The series is classed as cell-based. Conditions: read-out: LC50. A general note: Formazan colour is commonly taken as a measure of viable cells.
Series [8] deals with T1, Indoleamine 2,3-dioxygenase 1. Briefly: Inhibition of recombinant human IDO1 expressed in bacterial expression system using L-Tryptophan as substrate after 25 mins in presence of GSH and tween20 by fluorescence assay.
Target sequence in this assay (P14902 whole entry): as above
Series [9] has the same target. Conditions: 30 uM.
Target sequence in this assay (P14902 whole entry, looked up): as the sequence (P14902 whole entry) above
The target is the same in series [10]. Kind of series: Inhibition of recombinant human IDO1 expressed in bacterial expression system at 50 uM using L-Tryptophan as substrate after 25 mins by fluorescence assay relative to control.
Target sequence in this assay (P14902 whole entry, looked up): as the sequence (P14902 whole entry) above
Series [11] has the same target. Kind of series: Irreversible inhibition of recombinant human IDO1 expressed in bacterial expression system at 3 uM using L-Tryptophan as substrate after preincubated for 90 mins followed by 100 fold compound dilution measured after 15 mins by fluorescence assay relative to control.
Target sequence in this assay (P14902 whole entry, looked up): as the sequence (P14902 whole entry) above
The subject of series [12] is LLTC cell line. Kind of series: Cytotoxicity against mouse LLTC cells assessed as reduction in cell viability after 24 hrs in presence of GSH by MTT assay. The series is classed as cell-based.
Series [13] addresses T1, Indoleamine 2,3-dioxygenase 1. Conditions: 40 uM.
Target sequence in this assay (P14902 whole entry, looked up): as the sequence (P14902 whole entry) above
The target is the same in series [14]. Kind of series: Inhibition of full length recombinant human His-tagged IDO1 expressed in mouse LLTC cells using L-tryptophan as substrate after 24 hrs in presence of GSH. The series is classed as cell-based.
Target sequence in this assay (P14902 whole entry): as above
Series [15] shares this target. Conditions: 80 uM.
Target sequence in this assay (P14902 whole entry, looked up): as the sequence (P14902 whole entry) above
Series [16] has as its system Indoleamine 2,3-dioxygenase 1 (Homo sapiens), P14902 [S167A]. Kind of series: Inhibition of recombinant human IDO1 S167A mutant expressed in Escherichia coli SG13009(pREP4) at 20 uM using L-Tryptophan as substrate after 25 mins by fluorescence assay relative to control.
Series [17] addresses T1, Indoleamine 2,3-dioxygenase 1. Kind of series: Inhibition of recombinant human IDO1 expressed in bacterial expression system at 350 uM using L-Tryptophan as substrate after 25 mins by fluorescence assay relative to control.
Series [18] shares this target. Kind of series: Inhibition of recombinant human IDO1 expressed in bacterial expression system at 150 uM using L-Tryptophan as substrate after 25 mins by fluorescence assay relative to control.

Indoleamine 2,3-dioxygenase 1 (Homo sapiens), P14902 [S167A], sequence (P14902 whole entry S167A): as the sequence (P14902 whole entry) above, with S167A counted along it

By IC50 is commonly meant the midpoint of a concentration-inhibition curve. Broadly, the inhibition is the relative decrease from the control value, in per cent. As to `Cc1ccc([S+]([O-])c2ccc([N+](=O)[O-])c3nonc23)cc1` (stereo unspecified), the Ratio IC50 in series [1] was 0.055. The IC50 in series [2] is 12 µM; in [3] it was 0.66 µM; in [4], 15 µM; in series [5] it was 14 µM; in series [8] it was 2.1 µM. Further, the inhibition in series [6] is over 75%. In addition, in series [7], the CC50 at 24 h is 29 µM.

Take `Clc1ccc(SCNc2ccccc2Cl)cc1`: the inhibition in series [9] is under 25%. Further, the Ratio IC50 in series [1] came out at 0.2. Also, the IC50 came out at 4.5 µM in series [2]; 0.87 µM in [3]; 6.3 µM in series [4]; 5.5 µM in series [5]; 1.5 µM in [8]. The CC50 at 24 h in [7] stood at 40 µM.

As for `COc1ccc(C2=C(N)c3ccccc3C2=O)cc1`, the inhibition in series [10] was determined as 13%.

On to `Cc1ccccc1C1=[N+]([O-])c2ccccc2C1=O`, for which the Ratio IC50 in [1] amounted to 5. The IC50 in series [2] stood at 0.46 µM; in series [3] it was 2.2 µM; in series [4], 3.9 µM. Also, the inhibition in series [11] was over 75%. The CC50 at 24 h in series [7] came to 12 µM.

Consider `Oc1nccc(SCc2ccc(Cl)cc2Cl)n1`, for which the Ratio IC50 in series [1] was determined as 3. For the same molecule, the IC50 in [2] is 7.5 µM; in [3] it was 20 µM; in [4], 4.4 µM; in series [5], 4.3 µM; in series [14] it was 0.2 to 3 µM; in series [8], 0.75 µM. Moreover, the Activity entry in series [12] is reported as “Non-Toxic”. The molecule also gave an inhibition in series [13] of under 25%. Besides, the CC50 at 24 h in series [7] is over 117 µM.

On to `Oc1ccccc1-c1nc2c3ccccc3c3ccccc3c2[nH]1`, for which the Ratio IC50 in series [1] was in the range of 8 to 109. The IC50 in series [2] is 3.3 to 9 µM; in series [3], 26 to 980 µM; in series [4], 52 µM; in [5], 7.8 µM; in series [8] it was 4.9 µM. Moreover, the inhibition is under 25% in [15] and 2% in series [16]. Further, the CC50 at 24 h in series [7] was over 100 µM.

For the molecule `O=C1C(c2ccccc2)=Nc2ccccc21`, the IC50 in [4] came to 114 µM. For the same molecule, the CC50 at 24 h in [7] was determined as 220 µM. In [17], the inhibition was 9%.

Turning to `CCC1=C(c2ccccc2)C(=O)c2ccccc21`, in series [18], the inhibition was 20%.
